Data reported in article PMC3694096, “Development of Novel In Vivo Chemical Probes to Address CNS Protein Kinase Involvement in Synaptic Dysfunction” (PLoS ONE, 2013).
Read-outs that look alike come from different tables or passages of the source.

Experiments:
exploratory behavior = assay: Open-field test; assay type: in vivo, C57BL/6J mice; conditions: time in and entries into center compartment; control test
EphB2 = target: T1, EphB2 (Homo sapiens, UniProt P29323); assay: Kinome profiler screen; assay type: biochemical; conditions: for activity at 20 µM: at 20,000 nM inhibitor, kinase activity remaining
T1 construct: purchased Millipore
T1 sequence (P29323 19-1055): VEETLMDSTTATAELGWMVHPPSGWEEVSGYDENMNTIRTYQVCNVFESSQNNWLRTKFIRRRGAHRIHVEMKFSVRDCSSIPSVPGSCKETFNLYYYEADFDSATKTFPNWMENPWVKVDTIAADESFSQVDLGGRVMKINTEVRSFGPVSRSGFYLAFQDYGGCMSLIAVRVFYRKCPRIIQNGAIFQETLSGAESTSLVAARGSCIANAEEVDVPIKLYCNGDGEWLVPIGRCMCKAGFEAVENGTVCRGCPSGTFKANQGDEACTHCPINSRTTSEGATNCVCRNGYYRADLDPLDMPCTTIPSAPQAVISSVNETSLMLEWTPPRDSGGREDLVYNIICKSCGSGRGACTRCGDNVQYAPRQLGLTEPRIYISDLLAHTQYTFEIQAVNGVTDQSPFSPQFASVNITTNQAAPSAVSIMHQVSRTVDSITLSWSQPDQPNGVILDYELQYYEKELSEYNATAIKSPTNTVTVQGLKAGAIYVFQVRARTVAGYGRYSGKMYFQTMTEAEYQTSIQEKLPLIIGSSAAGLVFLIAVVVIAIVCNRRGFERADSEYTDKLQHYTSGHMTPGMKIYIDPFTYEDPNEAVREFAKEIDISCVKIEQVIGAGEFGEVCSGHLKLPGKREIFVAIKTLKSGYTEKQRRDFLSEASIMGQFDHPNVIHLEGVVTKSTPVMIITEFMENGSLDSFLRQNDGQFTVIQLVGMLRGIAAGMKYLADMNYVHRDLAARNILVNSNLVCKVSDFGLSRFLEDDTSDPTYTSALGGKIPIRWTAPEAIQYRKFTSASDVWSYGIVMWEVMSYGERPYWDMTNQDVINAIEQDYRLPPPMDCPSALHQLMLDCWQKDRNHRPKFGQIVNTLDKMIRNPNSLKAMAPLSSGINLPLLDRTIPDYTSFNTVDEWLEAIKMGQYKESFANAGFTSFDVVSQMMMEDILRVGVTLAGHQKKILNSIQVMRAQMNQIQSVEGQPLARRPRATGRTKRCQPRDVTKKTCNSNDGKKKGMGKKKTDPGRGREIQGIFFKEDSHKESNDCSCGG

BV-2 microglial cells = assay: cells; assay type: cell-based, murine; conditions: BV-2 cells
GCK = target: T2, GCK (Homo sapiens, UniProt Q12851); assay: Kinome profiler screen; assay type: biochemical; conditions: at 20,000 nM inhibitor; kinase activity remaining
T2 construct: purchased Millipore KinaseProfiler

NLK = target: T3, NLK (Homo sapiens, UniProt Q9UBE8); assay: biochemical
T3 sequence (Q9UBE8 1-527): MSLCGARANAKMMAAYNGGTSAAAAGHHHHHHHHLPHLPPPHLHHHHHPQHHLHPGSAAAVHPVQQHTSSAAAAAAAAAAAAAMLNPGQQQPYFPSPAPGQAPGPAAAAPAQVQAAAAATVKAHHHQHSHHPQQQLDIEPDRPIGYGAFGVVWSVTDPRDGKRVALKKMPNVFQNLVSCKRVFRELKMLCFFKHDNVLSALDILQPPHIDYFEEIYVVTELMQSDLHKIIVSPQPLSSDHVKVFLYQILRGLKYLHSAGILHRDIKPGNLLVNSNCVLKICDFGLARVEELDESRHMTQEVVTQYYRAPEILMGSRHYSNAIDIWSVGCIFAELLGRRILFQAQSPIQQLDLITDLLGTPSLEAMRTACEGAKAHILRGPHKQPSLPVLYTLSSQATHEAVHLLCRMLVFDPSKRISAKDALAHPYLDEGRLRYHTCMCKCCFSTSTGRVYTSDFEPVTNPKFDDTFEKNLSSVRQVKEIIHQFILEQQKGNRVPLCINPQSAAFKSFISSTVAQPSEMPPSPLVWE

SRPK1 = target: T4, SRPK1 (Homo sapiens, UniProt Q96SB4); assay: Kinome profiler screen; assay type: biochemical
T4 construct: purchased Millipore KinaseProfiler

Abl(Y253F) = target: T5, Abl(Y253F) (Homo sapiens, UniProt P00519, Y253F); assay: Kinome profiler screen; assay type: biochemical; conditions: at 20,000 nM inhibitor; kinase activity remaining
T5 construct: purchased Millipore KinaseProfiler

DYRK2 = target: T6, DYRK2 (Homo sapiens, UniProt Q92630); assay: Kinome profiler screen; assay type: biochemical; conditions: at 20,000 nM inhibitor; kinase activity remaining
T6 construct: purchased Millipore KinaseProfiler

Fms = target: T7, Fms (Homo sapiens, UniProt P07333); assay: Kinome profiler screen; assay type: biochemical; conditions: at 20,000 nM inhibitor; kinase activity remaining
T7 construct: purchased Millipore KinaseProfiler

ULK3 = target: T8, ULK3 (Homo sapiens, UniProt Q6PHR2); assay: Kinome profiler screen; assay type: biochemical; conditions: at 20,000 nM inhibitor; kinase activity remaining
T8 construct: purchased Millipore KinaseProfiler

CaMKI = target: T9, CaMKI (Homo sapiens, UniProt Q14012); assay: Kinome profiler screen; assay type: biochemical; conditions: at 20,000 nM inhibitor; kinase activity remaining
T9 construct: purchased Millipore KinaseProfiler

CDK7/cyclinH/MAT1 = target: T10, CDK7/cyclinH/MAT1 (Homo sapiens, UniProt P50613); assay: Kinome profiler screen; assay type: biochemical; conditions: at 20,000 nM inhibitor; kinase activity remaining
T10 construct: purchased Millipore KinaseProfiler

DCAMKL2 = target: T11, DCAMKL2 (Homo sapiens, UniProt Q8N568); assay: Kinome profiler screen; assay type: biochemical; conditions: at 20,000 nM inhibitor; kinase activity remaining
T11 construct: purchased Millipore KinaseProfiler

[1] = Dose escalation adverse event screen (SHIRPA based); assay type: in vivo; conditions: highest dose at which no adverse events are observed in dose escalation studies, mice
Source text: Novel compounds were screened in vivo using a standard dose escalation screen in mice coupled with clinical observation and testing based on the SHIRPA mouse phenotype assay paradigm. To obtain insight into the potential for off-target activity with the largest known family of small molecule drug targets, G-protein coupled receptors (GPCRs), a cell-based functional screen of the final title compounds was done. The Millipore® GPCR Profiler screen employs the ChemiScreen GPCR stable cell line technology used for real-time calcium flux FLIPR assays on a panel of 158 GPCRs to detect both antagonists and agonists. The NCBI Entrez identifier for each GPCR is provided at the vendor site (www.millipore.com). Follow-up validation of any initial hits as being true positives or negatives was done as described above for protein kinases by testing the concentration dependence of any cellular effects. No validated hits were detected.

[2] = target: T12, PI3 Kinase (p110 β/p85β)(m) (Mus musculus, UniProt Q8BTI9); assay: Kinome profiler screen; assay type: biochemical; conditions: at 20,000 nM inhibitor; kinase activity remaining
T12 construct: purchased Millipore KinaseProfiler

MKK4(m) = target: T13, MKK4(m) (Mus musculus, UniProt P47809); assay: Kinome profiler screen; assay type: biochemical; conditions: at 20,000 nM inhibitor; kinase activity remaining
T13 construct: purchased Millipore KinaseProfiler

LIMK1 = target: T14, LIMK1 (Homo sapiens, UniProt P53667); assay: Kinome profiler screen; assay type: biochemical; conditions: at 20,000 nM inhibitor; kinase activity remaining
T14 construct: purchased Millipore KinaseProfiler

Bmx = target: T15, Bmx (Homo sapiens, UniProt P51813); assay: Kinome profiler screen; assay type: biochemical; conditions: at 20,000 nM inhibitor; kinase activity remaining
T15 construct: purchased Millipore KinaseProfiler

T13 sequence (P47809 2-397): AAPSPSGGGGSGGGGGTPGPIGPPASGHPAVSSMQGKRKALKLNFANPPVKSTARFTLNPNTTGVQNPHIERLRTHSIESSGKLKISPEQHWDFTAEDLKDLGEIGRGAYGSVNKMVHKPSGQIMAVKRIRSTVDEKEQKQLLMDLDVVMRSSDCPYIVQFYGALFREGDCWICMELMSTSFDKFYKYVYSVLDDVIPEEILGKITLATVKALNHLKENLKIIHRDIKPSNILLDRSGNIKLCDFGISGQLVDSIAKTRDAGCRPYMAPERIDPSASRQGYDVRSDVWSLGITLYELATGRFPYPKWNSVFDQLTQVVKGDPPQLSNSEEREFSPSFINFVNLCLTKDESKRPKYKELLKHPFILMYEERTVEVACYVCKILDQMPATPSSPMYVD
T8 sequence (Q6PHR2 whole entry): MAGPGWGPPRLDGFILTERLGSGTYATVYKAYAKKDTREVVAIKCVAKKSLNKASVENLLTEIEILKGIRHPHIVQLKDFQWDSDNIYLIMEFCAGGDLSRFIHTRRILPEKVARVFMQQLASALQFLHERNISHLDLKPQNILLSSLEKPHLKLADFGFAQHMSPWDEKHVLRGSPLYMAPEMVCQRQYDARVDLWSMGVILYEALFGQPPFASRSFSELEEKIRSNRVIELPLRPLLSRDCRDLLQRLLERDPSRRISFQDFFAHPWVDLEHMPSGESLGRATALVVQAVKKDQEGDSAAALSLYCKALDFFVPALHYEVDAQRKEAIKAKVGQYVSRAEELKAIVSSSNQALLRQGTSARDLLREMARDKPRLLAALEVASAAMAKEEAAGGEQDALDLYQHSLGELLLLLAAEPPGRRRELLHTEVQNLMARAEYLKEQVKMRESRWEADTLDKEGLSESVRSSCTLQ
T7 sequence (P07333 20-972): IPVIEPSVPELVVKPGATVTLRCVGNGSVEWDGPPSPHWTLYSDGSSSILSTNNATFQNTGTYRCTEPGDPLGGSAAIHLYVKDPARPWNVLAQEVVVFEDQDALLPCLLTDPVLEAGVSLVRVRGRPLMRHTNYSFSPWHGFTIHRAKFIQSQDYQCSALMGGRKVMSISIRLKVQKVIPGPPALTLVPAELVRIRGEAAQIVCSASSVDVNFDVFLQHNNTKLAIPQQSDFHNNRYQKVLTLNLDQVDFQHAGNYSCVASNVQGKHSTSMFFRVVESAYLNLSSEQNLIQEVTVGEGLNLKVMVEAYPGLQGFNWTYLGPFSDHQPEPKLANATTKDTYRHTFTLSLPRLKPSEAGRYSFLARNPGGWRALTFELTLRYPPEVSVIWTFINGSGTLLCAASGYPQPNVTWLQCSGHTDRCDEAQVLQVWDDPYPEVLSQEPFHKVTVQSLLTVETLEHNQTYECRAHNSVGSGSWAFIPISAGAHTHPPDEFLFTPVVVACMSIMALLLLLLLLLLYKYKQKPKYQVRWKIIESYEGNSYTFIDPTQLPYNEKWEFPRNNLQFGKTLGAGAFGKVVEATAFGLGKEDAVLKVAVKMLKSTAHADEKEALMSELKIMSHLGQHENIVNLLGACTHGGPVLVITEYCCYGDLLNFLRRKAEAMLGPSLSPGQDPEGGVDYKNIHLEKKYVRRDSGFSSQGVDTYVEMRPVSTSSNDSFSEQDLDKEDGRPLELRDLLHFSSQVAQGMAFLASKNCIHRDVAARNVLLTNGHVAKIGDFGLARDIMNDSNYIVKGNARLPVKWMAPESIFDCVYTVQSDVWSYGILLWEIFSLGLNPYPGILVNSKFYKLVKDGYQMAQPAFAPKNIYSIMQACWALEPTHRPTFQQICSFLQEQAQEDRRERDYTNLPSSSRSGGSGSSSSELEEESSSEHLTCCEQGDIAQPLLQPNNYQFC
T11 sequence (Q8N568 whole entry): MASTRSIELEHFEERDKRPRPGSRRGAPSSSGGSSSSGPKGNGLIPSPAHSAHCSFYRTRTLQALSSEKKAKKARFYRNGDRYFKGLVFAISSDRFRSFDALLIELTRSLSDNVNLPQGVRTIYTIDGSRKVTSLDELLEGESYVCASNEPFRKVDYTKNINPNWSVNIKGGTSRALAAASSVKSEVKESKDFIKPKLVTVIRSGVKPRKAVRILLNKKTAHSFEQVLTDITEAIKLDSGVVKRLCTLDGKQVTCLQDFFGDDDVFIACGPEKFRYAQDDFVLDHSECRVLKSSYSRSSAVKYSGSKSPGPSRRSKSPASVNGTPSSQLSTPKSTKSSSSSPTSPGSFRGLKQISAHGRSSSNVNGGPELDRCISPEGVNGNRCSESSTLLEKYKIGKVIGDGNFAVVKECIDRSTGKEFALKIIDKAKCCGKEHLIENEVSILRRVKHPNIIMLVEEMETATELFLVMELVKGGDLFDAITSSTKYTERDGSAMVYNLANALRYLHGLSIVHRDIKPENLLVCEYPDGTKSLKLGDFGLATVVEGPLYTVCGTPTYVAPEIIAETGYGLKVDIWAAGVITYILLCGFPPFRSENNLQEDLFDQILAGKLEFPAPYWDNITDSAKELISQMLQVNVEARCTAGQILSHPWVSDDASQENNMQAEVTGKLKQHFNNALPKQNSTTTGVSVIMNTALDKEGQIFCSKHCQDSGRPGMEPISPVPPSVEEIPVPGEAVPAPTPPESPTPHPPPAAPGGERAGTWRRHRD
T6 sequence (Q92630 whole entry): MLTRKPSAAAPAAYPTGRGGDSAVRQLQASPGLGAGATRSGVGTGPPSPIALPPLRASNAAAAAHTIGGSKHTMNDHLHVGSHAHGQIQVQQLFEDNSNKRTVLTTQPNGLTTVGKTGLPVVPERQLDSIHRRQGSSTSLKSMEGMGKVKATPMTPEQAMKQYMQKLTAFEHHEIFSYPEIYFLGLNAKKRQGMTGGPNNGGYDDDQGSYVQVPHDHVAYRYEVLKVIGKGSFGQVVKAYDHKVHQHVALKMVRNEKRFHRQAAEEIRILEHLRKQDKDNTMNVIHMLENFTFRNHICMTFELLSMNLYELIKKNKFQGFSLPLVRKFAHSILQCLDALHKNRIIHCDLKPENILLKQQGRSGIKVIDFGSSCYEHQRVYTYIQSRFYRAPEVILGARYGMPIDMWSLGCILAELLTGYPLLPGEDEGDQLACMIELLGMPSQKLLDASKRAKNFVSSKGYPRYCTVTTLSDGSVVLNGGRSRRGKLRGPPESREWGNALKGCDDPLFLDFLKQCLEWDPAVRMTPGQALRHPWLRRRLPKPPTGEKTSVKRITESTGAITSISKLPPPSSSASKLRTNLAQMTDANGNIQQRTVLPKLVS
T9 sequence (Q14012 whole entry): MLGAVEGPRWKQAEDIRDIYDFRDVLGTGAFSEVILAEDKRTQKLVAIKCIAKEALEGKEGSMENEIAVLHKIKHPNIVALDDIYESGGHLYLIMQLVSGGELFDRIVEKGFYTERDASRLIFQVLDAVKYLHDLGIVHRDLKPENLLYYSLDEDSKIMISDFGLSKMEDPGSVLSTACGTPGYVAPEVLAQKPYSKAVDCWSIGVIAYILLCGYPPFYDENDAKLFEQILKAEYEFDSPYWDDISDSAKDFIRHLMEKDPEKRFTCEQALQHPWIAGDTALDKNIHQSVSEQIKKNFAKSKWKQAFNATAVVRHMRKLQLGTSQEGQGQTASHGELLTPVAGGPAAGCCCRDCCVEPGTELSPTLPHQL
T2 sequence (Q12851 whole entry): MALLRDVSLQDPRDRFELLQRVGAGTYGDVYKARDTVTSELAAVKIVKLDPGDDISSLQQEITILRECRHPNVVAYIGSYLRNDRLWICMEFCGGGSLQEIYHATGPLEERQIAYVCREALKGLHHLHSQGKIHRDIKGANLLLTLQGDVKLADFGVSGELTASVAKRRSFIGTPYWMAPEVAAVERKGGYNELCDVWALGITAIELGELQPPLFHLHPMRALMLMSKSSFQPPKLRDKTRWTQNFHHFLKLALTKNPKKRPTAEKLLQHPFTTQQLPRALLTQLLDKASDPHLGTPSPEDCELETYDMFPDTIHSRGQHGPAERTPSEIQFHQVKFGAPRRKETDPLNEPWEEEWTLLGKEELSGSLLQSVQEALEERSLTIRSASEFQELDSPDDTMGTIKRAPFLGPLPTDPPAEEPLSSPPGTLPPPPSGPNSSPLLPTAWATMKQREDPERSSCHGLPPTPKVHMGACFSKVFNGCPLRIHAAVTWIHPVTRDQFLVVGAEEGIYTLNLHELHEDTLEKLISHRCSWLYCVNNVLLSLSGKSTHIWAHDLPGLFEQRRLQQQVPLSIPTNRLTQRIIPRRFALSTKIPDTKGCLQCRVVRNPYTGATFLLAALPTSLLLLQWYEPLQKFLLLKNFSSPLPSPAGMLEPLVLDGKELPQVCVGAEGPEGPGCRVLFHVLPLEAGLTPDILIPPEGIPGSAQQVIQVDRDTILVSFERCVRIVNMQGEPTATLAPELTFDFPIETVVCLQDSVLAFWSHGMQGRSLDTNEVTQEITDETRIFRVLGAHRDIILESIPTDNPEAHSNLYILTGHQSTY
T4 sequence (Q96SB4 whole entry): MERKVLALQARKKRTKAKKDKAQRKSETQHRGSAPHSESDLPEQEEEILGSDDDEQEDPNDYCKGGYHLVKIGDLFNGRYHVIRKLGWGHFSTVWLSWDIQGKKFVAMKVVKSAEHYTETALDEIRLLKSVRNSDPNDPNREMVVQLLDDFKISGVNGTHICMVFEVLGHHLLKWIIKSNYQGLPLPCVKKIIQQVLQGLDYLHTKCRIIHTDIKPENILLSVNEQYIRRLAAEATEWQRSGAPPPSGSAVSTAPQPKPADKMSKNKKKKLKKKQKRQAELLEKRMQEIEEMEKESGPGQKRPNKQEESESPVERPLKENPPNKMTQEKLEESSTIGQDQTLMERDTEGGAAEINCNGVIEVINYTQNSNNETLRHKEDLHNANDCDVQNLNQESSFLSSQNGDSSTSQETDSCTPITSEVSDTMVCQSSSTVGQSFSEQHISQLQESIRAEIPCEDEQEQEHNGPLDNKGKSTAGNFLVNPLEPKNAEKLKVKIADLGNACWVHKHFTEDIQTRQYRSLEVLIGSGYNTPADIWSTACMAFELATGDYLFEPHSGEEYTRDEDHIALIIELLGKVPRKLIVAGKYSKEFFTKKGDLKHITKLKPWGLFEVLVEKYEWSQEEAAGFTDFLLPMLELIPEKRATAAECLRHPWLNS

Compound | exploratory behavior, open field (exploratory behavior) | activity at 20 µM (EphB2) [%] | LPS-induced IL-1β production (BV-2 microglial cells) | activity at 20 µM (GCK) [%] | IC50 (NLK) [nM] | activity at 20 µM (Abl(Y253F)) [%] | activity at 20 µM (DYRK2) [%] | activity at 20 µM (Fms) [%] | activity at 20 µM (ULK3) [%] | activity at 20 µM (CaMKI) [%] | activity at 20 µM (CDK7/cyclinH/MAT1) [%] | activity at 20 µM (DCAMKL2) [%] | Dose Escalating Adverse Event Screen / Adverse Pharm Dose [1] [mg/kg] | activity at 20 µM [2] [%] | activity at 20 µM (MKK4(m)) [%] | activity at 20 µM (LIMK1) [%] | activity at 20 µM (Bmx) [%] | also measured
CN(C)c1cc(-c2ccncc2)c(-c2cccc3ccccc23)nn1 [MW181, N,N-dimethyl-6-(naphthalen-1-yl)-5-(pyridin-4-yl)pyridazin-3-amine] | No differences in exploratory behavior | 92 | inhibited LPS-induced IL-1β production in a concentration-dependent manner | 101 | 206 | 108 | 109 | 85 | 106 | 101 | 99 | 101 | ≥ 200 | 100 | 91 | 95 | 108 | activity at 20 µM (SRPK1; at 20,000 nM inhibitor, kinase activity remaining, read-out: % Activity): 103%; Dose Escalating Adverse Event Screen / Adverse Pharm Dose ([1]; listed as MW01-10-181SRM): > 200 mg/kg
CN(C)c1cc(-c2ccncc2)c(-c2ccc3ccccc3c2)nn1 [MW108, N, N-dimethyl-6-(naphthalen-2-yl)-5-(pyridin-4-yl)pyridazin-3-amine] | No differences in exploratory behavior | 36 | inhibited LPS-induced IL-1β production in a concentration-dependent manner | 101 | 1210 | 98 | 108 | 98 | 95 | 101 | 98 | 109 | ≥ 200 | 101 | 108 | 106 | 87 | IC50 (EphB2): 16200 nM; IC50 (BV-2 microglial cells; Mus musculus, 100 ng/ml LPS, 18 hrs, read-out: IC50, inhibition of IL-1β overproduction): 610 ± 20 nM; activity at 20 µM (NLK): 20%; activity at 20 µM (SRPK1): 114%; Dose Escalating Adverse Event Screen / Adverse Pharm Dose ([1]; listed as MW01-11-108SRM): > 200 mg/kg
